Patent publication US8772321B2, “Heteroannelated anthraquinone derivatives for inhibiting cancers” (National Defense Medical Center, priority 2008, dated 2014)

Assays:
786-0 = assay: NCI 60-cell one dose screen; assay type: cell-based, human; details: 786-0 (Renal cancer); 10^−5M
Procedure: (§1) NSC745885 was studied as a prototype for anti-proliferative activity against human cancer cell lines in NCI Drug Screen Program (Table 1, below). NSC745885 was evaluated in the full panel of human tumor cell lines derived from nine cancer cell types (leukemia, non-small cell lung cancer, colon cancer, CNS cancer, prostate cancer, melanoma, ovarian cancer, renal cancer and breast cancer). Each subpanel uses several cell lines and dose-response curves were drawn against the decadic logarithm (log 10) of the corresponding drug concentrations for each cell line by the subpanel group. They were also evaluated in the 60 cell line panel and anticancer assay was performed in accordance with the protocol of developmental therapeutics program (one dose mean graph). Results for each compound were reported as the proliferation percentage of the treated cells with that of the untreated control cells being 100. For each of these parameters the averaged values of mean graph midpoint (MG_MID) were calculated.

A498 = assay: NCI 60-cell one dose screen; assay type: cell-based, human; details: A498 (Renal cancer); 10^−5M
Procedure: as §1

ACHN = assay: NCI 60-cell one dose screen; assay type: cell-based, human; details: ACHN (Renal cancer); 10^−5M
Procedure: as §1

CCRF-CEM = assay: NCI 60-cell one dose screen; assay type: cell-based, human; details: CCRF-CEM (Leukemia); 10^−5M
Procedure: as §1

DU-145 = assay: NCI 60-cell one dose screen; assay type: cell-based, human; details: DU-145 (Prostate cancer); 10^−5M
Procedure: as §1

EKVX = assay: NCI 60-cell one dose screen; assay type: cell-based, human; details: EKVX (Non-small cell lung cancer); 10^−5M
Procedure: as §1

HCC-2998 = assay: NCI 60-cell one dose screen; assay type: cell-based, human; details: HCC-2998 (Colon cancer); 10^−5M
Procedure: as §1

HCT-15 = assay: NCI 60-cell one dose screen; assay type: cell-based, human; details: HCT-15 (Colon cancer); 10^−5M
Procedure: as §1

HT29 [1] = assay: NCI 60-cell one dose screen; assay type: cell-based, human; details: HT29 (Colon cancer); 10^−5M
Procedure: as §1

LOX IMVI = assay: NCI 60-cell one dose screen; assay type: cell-based, human; details: LOX IMVI (Melanoma); 10^−5M
Procedure: as §1

M14 = assay: NCI 60-cell one dose screen; assay type: cell-based, human; details: M14 (Melanoma); 10^−5M
Procedure: as §1

MALME-3M = assay: NCI 60-cell one dose screen; assay type: cell-based, human; details: MALME-3M (Melanoma); 10^−5M
Procedure: as §1

MDA-MB-435 = assay: NCI 60-cell one dose screen; assay type: cell-based, human; details: MDA-MB-435 (Breast cancer); 10^−5M
Procedure: as §1

MDA-MB468 = assay: NCI 60-cell one dose screen; assay type: cell-based, human; details: MDA-MB468 (Breast cancer); 10^−5M
Procedure: as §1

MOLT-4 = assay: NCI 60-cell one dose screen; assay type: cell-based, human; details: MOLT-4 (Leukemia); 10^−5M
Procedure: as §1

NCI-H226 = assay: NCI 60-cell one dose screen; assay type: cell-based, human; details: NCI-H226 (Non-small cell lung cancer); 10^−5M
Procedure: as §1

NCI-H23 = assay: NCI 60-cell one dose screen; assay type: cell-based, human; details: NCI-H23 (Non-small cell lung cancer); 10^−5M
Procedure: as §1

NCI-H460 = assay: NCI 60-cell one dose screen; assay type: cell-based, human; details: NCI-H460 (Non-small cell lung cancer); 10^−5M
Procedure: as §1

NCI/ADR-RES = assay: NCI 60-cell one dose screen; assay type: cell-based, human; details: NCI/ADR-RES (Ovarian cancer); 10^−5M
Procedure: as §1

OVCAR-3 = assay: NCI 60-cell one dose screen; assay type: cell-based, human; details: OVCAR-3 (Ovarian cancer); 10^−5M
Procedure: as §1

RPMI-8226 = assay: NCI 60-cell one dose screen; assay type: cell-based, human; details: RPMI-8226 (Leukemia); 10^−5M
Procedure: as §1

RXF393 = assay: NCI 60-cell one dose screen; assay type: cell-based, human; details: RXF393 (Renal cancer); 10^−5M
Procedure: as §1

SF-268 = assay: NCI 60-cell one dose screen; assay type: cell-based, human; details: SF-268 (CNS cancer); 10^−5M
Procedure: as §1

SF-295 = assay: NCI 60-cell one dose screen; assay type: cell-based, human; details: SF-295 (CNS cancer); 10^−5M
Procedure: as §1

SF-539 = assay: NCI 60-cell one dose screen; assay type: cell-based, human; details: SF-539 (CNS cancer); 10^−5M
Procedure: as §1

SK-MEL-28 = assay: NCI 60-cell one dose screen; assay type: cell-based, human; details: SK-MEL-28 (Melanoma); 10^−5M
Procedure: as §1

SK-MEL-5 = assay: NCI 60-cell one dose screen; assay type: cell-based, human; details: SK-MEL-5 (Melanoma); 10^−5M
Procedure: as §1

SK-OV-3 = assay: NCI 60-cell one dose screen; assay type: cell-based, human; details: SK-OV-3 (Ovarian cancer); 10^−5M
Procedure: as §1

SN12C = assay: NCI 60-cell one dose screen; assay type: cell-based, human; details: SN12C (Renal cancer); 10^−5M
Procedure: as §1

SNB-19 = assay: NCI 60-cell one dose screen; assay type: cell-based, human; details: SNB-19 (CNS cancer); 10^−5M
Procedure: as §1

SNB-75 = assay: NCI 60-cell one dose screen; assay type: cell-based, human; details: SNB-75 (CNS cancer); 10^−5M
Procedure: as §1

SR = assay: NCI 60-cell one dose screen; assay type: cell-based, human; details: SR (Leukemia); 10^−5M
Procedure: as §1

U251 = assay: NCI 60-cell one dose screen; assay type: cell-based, human; details: U251 (CNS cancer); 10^−5M
Procedure: as §1

UACC-257 = assay: NCI 60-cell one dose screen; assay type: cell-based, human; details: UACC-257 (Melanoma); 10^−5M
Procedure: as §1

UACC-62 = assay: NCI 60-cell one dose screen; assay type: cell-based, human; details: UACC-62 (Melanoma); 10^−5M
Procedure: as §1

HT29 [2] = assay: NCI 60-cell panel dose-response; assay type: cell-based; details: Homo sapiens, HT-29; HT29 (Colon cancer)

## O=C1c2ccccc2C(=O)c2c1ccc1nsnc21 [NSC745885, anthra[2,1-c][1,2,5]thiadiazole-6,11-dione]
786-0
  proliferation percentage: −25.98%
A498
  proliferation percentage: 130.09%
ACHN
  proliferation percentage: −94.31%
CCRF-CEM
  proliferation percentage: −30.81%
DU-145
  proliferation percentage: 40.76%
EKVX
  proliferation percentage: 103.18%
HCC-2998
  proliferation percentage: −0.74%
HCT-15
  proliferation percentage: 1.48%
HT29 [1]
  proliferation percentage: 116.95%
LOX IMVI
  proliferation percentage: −50.63%
M14
  proliferation percentage: 74.54%
MALME-3M
  proliferation percentage: −71.54%
MDA-MB-435
  proliferation percentage: −87.88%
MDA-MB468
  proliferation percentage: −73.17%
MOLT-4
  proliferation percentage: −40.09%
NCI-H226
  proliferation percentage: 97.80%
NCI-H23
  proliferation percentage: 16.07%
NCI-H460
  proliferation percentage: 77.41%
NCI/ADR-RES
  proliferation percentage: −2.53%
OVCAR-3
  proliferation percentage: −15.47%
RPMI-8226
  proliferation percentage: −27.97%
RXF393
  proliferation percentage: 20.11%
SF-268
  proliferation percentage: 16.29%
SF-295
  proliferation percentage: 126.17%
SF-539
  proliferation percentage: −47.11%
SK-MEL-28
  proliferation percentage: 15.47%
SK-MEL-5
  proliferation percentage: 8.52%
SK-OV-3
  proliferation percentage: 100.70%
SN12C
  proliferation percentage: −73.27%
SNB-19
  proliferation percentage: 78.98%
SNB-75
  proliferation percentage: 79.03%
SR
  proliferation percentage: 4.96%
U251
  proliferation percentage: −89.26%
UACC-257
  proliferation percentage: −83.07%
UACC-62
  proliferation percentage: −82.32%
HT29 [2]
  GI50: 13.4 µM
